Measured values from ChEMBL document CHEMBL3621045, “Structural Insights Lead to a Negamycin Analogue with Improved Antimicrobial Activity against Gram-Negative Pathogens” (ACS Med Chem Lett, 2015).
In brackets after ≈: the same amount, converted by molar mass.

Tests used:
Escherichia coli [1] = test: Inhibition of transcription-translation process in Escherichia coli; assay type: functional
Acinetobacter baumannii = test: Antibacterial activity against Acinetobacter baumannii ARC 3495; assay type: functional
Klebsiella pneumoniae = test: Antibacterial activity against Klebsiella pneumoniae ATCC 700603; assay type: functional
Pseudomonas aeruginosa [2] = test: Antibacterial activity against Pseudomonas aeruginosa PAO1; assay type: functional
Pseudomonas aeruginosa [3] = test: Antibacterial activity against mexABCDXY-deficient Pseudomonas aeruginosa PAO1; assay type: functional
Escherichia coli [4] = test: microbe, parasite or virus in culture; conditions: ATCC 25922
Description: Antibacterial activity against Escherichia coli ATCC 25922

Escherichia coli [5] = test: microbe, parasite or virus in culture; conditions: ATCC 25922; remark: listed apart in the source
Description: Antibacterial activity against tolC-deficient Escherichia coli ATCC 25922

Row | Molecule | IC50 (Escherichia coli [1]; Escherichia coli) [µM] | MIC (Acinetobacter baumannii) [µg/mL] | MIC (Klebsiella pneumoniae) [µg/mL] | MIC (Pseudomonas aeruginosa [2]) [µg/mL] | MIC (Pseudomonas aeruginosa [3]) [µg/mL] | MIC (Escherichia coli [4]) [µg/mL] | MIC (Escherichia coli [5]) [µg/mL] | IC50 (Escherichia coli [1]) [µM]
1 | CN(CC(=O)O)NC(=O)C[C@H](N)C[C@@H](O)CNCCCN | 0.34 | 4 (≈ 13.1 µM) | 4 (≈ 13.1 µM) | 16 (≈ 52.4 µM) | 8 (≈ 26.2 µM) | 8 (≈ 26.2 µM) | 16 (≈ 52.4 µM) | –
2 | CN(CC(=O)O)NC(=O)C[C@H](N)C[C@@H](O)CNCCN | 2.1 | 64 (≈ 220 µM) | 32 (≈ 110 µM) | 128 (≈ 439 µM) | 64 (≈ 220 µM) | 64 (≈ 220 µM) | 64 (≈ 220 µM) | –
3 | CN(CC(=O)O)NC(=O)C[C@@H](N)C[C@@H](O)CN | 13 | 256 (≈ 1030 µM) | 256 (≈ 1030 µM) | > 256 | – | > 256 | – | –
4 | CN(CC(=O)O)NC(=O)C[C@H](N)C[C@@H](O)CNC[C@H](O)CN | 0.73 | 32 (≈ 99.6 µM) | 64 (≈ 199 µM) | 128 (≈ 398 µM) | 64 (≈ 199 µM) | 64 (≈ 199 µM) | 32 (≈ 99.6 µM) | –
5 | CN(CC(=O)O)NC(=O)C[C@H](N)C[C@@H](O)CNCC(N)CN (stereo partly drawn) | 10 | 32 (≈ 99.9 µM) | 64 (≈ 200 µM) | 128 (≈ 400 µM) | 128 (≈ 400 µM) | 128 (≈ 400 µM) | 128 (≈ 400 µM) | –
6 | CC(CCN)NC[C@H](O)C[C@@H](N)CC(=O)NN(C)CC(=O)O (stereo partly drawn) | 0.44 | 8 (≈ 25 µM) | 8 (≈ 25 µM) | 32 (≈ 100 µM) | 32 (≈ 100 µM) | 16 (≈ 50.1 µM) | 16 (≈ 50.1 µM) | –
7 | GENTAMICIN [listing 1 of 2 here] | – | > 64 | 8 | 1 | 0.13 | – | – | –
8 | CC(CN)CNC[C@H](O)C[C@@H](N)CC(=O)NN(C)CC(=O)O (stereo partly drawn) | 1.1 | 16 (≈ 50.1 µM) | 16 (≈ 50.1 µM) | 32 (≈ 100 µM) | 16 (≈ 50.1 µM) | 32 (≈ 100 µM) | 16 (≈ 50.1 µM) | –
9 | CNCCCNC[C@H](O)C[C@@H](N)CC(=O)NN(C)CC(=O)O | 5.8 | 64 (≈ 200 µM) | 64 (≈ 200 µM) | 256 (≈ 801 µM) | 256 (≈ 801 µM) | 256 (≈ 801 µM) | 256 (≈ 801 µM) | –
10 | CN(CC(=O)O)NC(=O)C[C@H](N)[C@H](O)[C@@H](O)CN | 43 | > 256 | > 256 | > 256 | – | > 256 | – | –
11 | CN(CC(=O)O)N(C)C(=O)C[C@H](N)C[C@@H](O)CN | > 100 | > 256 | > 256 | > 256 | – | > 256 | – | –
12 | CCNC[C@H](O)C[C@@H](N)CC(=O)NN(C)CC(=O)O | 0.5 | 64 (≈ 232 µM) | 64 (≈ 232 µM) | 512 (≈ 1850 µM) | – | 64 (≈ 232 µM) | – | –
13 | CN(CC(=O)O)NC(=O)C[C@H](N)C[C@@H](O)CNCC(F)CN (stereo partly drawn) | 3.6 | 256 (≈ 792 µM) | 128 (≈ 396 µM) | 256 (≈ 792 µM) | 128 (≈ 396 µM) | 256 (≈ 792 µM) | 128 (≈ 396 µM) | –
14 | CN(CC(=O)O)NC(=O)C[C@@H](N)C[C@@H](O)CNCCCN | 2.8 | 32 (≈ 105 µM) | 64 (≈ 210 µM) | 128 (≈ 419 µM) | 128 (≈ 419 µM) | 128 (≈ 419 µM) | 128 (≈ 419 µM) | –
15 | CN(CC(=O)O)NC(=O)C[C@@H](N)C[C@H](O)CN | 12 | 128 (≈ 516 µM) | 256 (≈ 1030 µM) | 256 (≈ 1030 µM) | – | 512 (≈ 2060 µM) | – | –
16 | CC(C(=O)NN(C)CC(=O)O)[C@H](N)C[C@@H](O)CN (stereo partly drawn) | 12 | 128 (≈ 488 µM) | ≥ 256 | ≥ 256 | – | 128 (≈ 488 µM) | – | –
17 | CN(CC(=O)O)NC(=O)C[C@H](N)C[C@@H](F)CN | 2.9 | 128 (≈ 511 µM) | 64 (≈ 256 µM) | 128 (≈ 511 µM) | – | 64 (≈ 256 µM) | – | –
18 | NC[C@H](O)C[C@@H](N)CC(=O)NNCC(=O)O | 34 | > 64 | > 64 | > 64 | – | > 64 | – | –
19 | CCN(CC(=O)O)NC(=O)C[C@H](N)C[C@@H](O)CN | 7.4 | 256 (≈ 976 µM) | 128 (≈ 488 µM) | 128 (≈ 488 µM) | – | 256 (≈ 976 µM) | – | –
20 | CN(CC(=O)O)NC(=O)C[C@H](N)C[C@@H](O)[C@@H](N)CO | 7.3 | 128 (≈ 460 µM) | > 128 | > 128 | – | > 128 | – | –
21 | NC[C@H](O)C[C@@H](N)CC(=O)NOCC(=O)O | > 100 | > 256 | > 256 | > 256 | – | > 256 | – | –
22 | CN(CC(=O)O)NC(=O)C[C@H](N)C[C@@H](O)CNCc1ccccc1 | 1 | > 256 | 128 (≈ 378 µM) | > 256 | – | 128 (≈ 378 µM) | – | –
23 | GENTAMICIN [listing 2 of 2 here] | – | – | – | – | – | – | – | 0.4
24 | CN(CC(=O)O)NC(=O)C[C@H](N)CCCN | 3.3 | 128 (≈ 551 µM) | 128 (≈ 551 µM) | 128 (≈ 551 µM) | – | 128 (≈ 551 µM) | – | –
25 | CN(CC(=O)O)NC(=O)C[C@H](N)C[C@@H](O)[C@H](N)CO | 78 | > 512 | > 512 | > 512 | – | > 512 | – | –
26 | CN(CC(=O)O)NC(=O)C[C@H](N)[C@@H](O)[C@@H](O)CN | 3.2 | 64 (≈ 242 µM) | > 64 | > 64 | – | > 64 | – | –
27 | CN(CC(=O)O)NC(=O)C[C@H](N)C[C@H](O)CN | 51 | 512 (≈ 2060 µM) | 1020 (≈ 4120 µM) | > 1020 | – | 1020 (≈ 4120 µM) | – | –
28 | CN(CC(=O)O)NC(=O)C[C@H](N)C[C@H](F)CN | 26 | > 512 | > 512 | > 512 | – | > 512 | – | –
